# Measurements published in patent US10111907B2, “Methods of treating ischemia” (FATE THERAPEUTICS, INC., priority 2011, dated 2018).
# System: CD34+ cells
# Assay: SDF-1 transwell migration assay
# Type: cell-based
# Conditions: CD34+ cells treated 4 hours at 37° C. at 10 μM, washed; 50 ng/mL SDF1 in lower chamber, 2.5 hours; compared to DMSO control
# Method: Transwell migration assays were performed using 96-well chemotaxis chambers, […] pore size polycarbonate membrane (Corning Inc., Corning, N.Y.) in accordance with manufacturer's instructions. Briefly, CD34^+ cells were then treated for 4 hours at 37° C. with 16,16-dimethyl PGE2 (dmPGE2), dmPGE2 and glucocorticoid, or DMSO control at a concentration of 10 μM in StemSpan® media (StemCell Technology, Vancouver, Canada). The cells were then washed by centrifugation (300 g for 10 minutes) and resuspended in transwell assay buffer (Phenol Red Free RPMI media (Mediatech), 0.5% lipid free BSA (Sigma-Aldrich) at a concentration of 40,000-60,000 cells/75 μl.
# To test the duration of the treatment effects, one portion of treated cells was washed by centrifugation (300 g for 10 minutes) and resuspended in StemSpan® media for 4 hours at 37° C. without dmPGE2, glucocorticoids, or DMSO and then washed again by centrifugation (300 g for 10 minutes) and resuspended in transwell assay buffer (Phenol Red Free RPMI media (Mediatech), 0.5% lipid free BSA (Sigma-Aldrich) at a concentration of 40,000-60,000 cells/75 μl.
# Seventy-five μl of cell suspension was added to the upper chamber of the plate, while 235 μl of transwell assay media containing 0 or 50 ng/ml SDF 1α (R&D system, Minneapolis, Minn.) was added to the bottom well. […]
smiles,measurement,value
"CCCCC(C)(C)[C@H](O)/C=C/[C@H]1[C@H](O)CC(=O)[C@@H]1C/C=C\CCCC(=O)O [dmPGE2, 16,16-dimethyl PGE2]",SDF1-driven cell migration (% of cells added),increased SDF1-driven cell migration compared to the DMSO control
